Reference: PubChem BioAssay (NCI)
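Assay format: 96-well plates, 48-hour exposure. Here, GI50 denotes the concentration required for 50% inhibition of growth. TGI: concentration producing complete growth inhibition.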

Columns and labels:
Assay in all cases: NCI tumour cell line growth inhibition, 48 h
MDA-MB-231 breast = tested on: MDA-MB-231 breast
MCF7 breast = tested on: MCF7 breast
SR leukemia = tested on: SR leukemia
ACHN renal = tested on: ACHN renal
MDA-MB-435 = tested on: MDA-MB-435
T-47D breast = tested on: T-47D breast
MDA-N = tested on: MDA-N
NCI/ADR-RES ovarian = tested on: NCI/ADR-RES ovarian
HS 578T breast = tested on: HS 578T breast
A498 renal = tested on: A498 renal
786-0 renal = tested on: 786-0 renal
LXFL 529 NSCLC = tested on: LXFL 529 NSCLC
DMS 114 small cell lung = tested on: DMS 114 small cell lung
DMS 273 small cell lung = tested on: DMS 273 small cell lung
XF 498 CNS = tested on: XF 498 CNS
P388 leukemia = tested on: P388 leukemia
P388/ADR leukemia = tested on: P388/ADR leukemia
SN12K1 renal = tested on: SN12K1 renal

| Compound | TGI (MDA-MB-231 breast) [µM] | TGI (MCF7 breast) [µM] | TGI (SR leukemia) [µM] | TGI (ACHN renal) [µM] | TGI (MDA-MB-435) [µM] | TGI (T-47D breast) [µM] | TGI (MDA-N) [µM] | TGI (NCI/ADR-RES ovarian) [µM] | TGI (HS 578T breast) [µM] | TGI (A498 renal) [µM] | TGI (786-0 renal) [µM] | TGI (LXFL 529 NSCLC) [µM] | TGI (DMS 114 small cell lung) [µM] | TGI (DMS 273 small cell lung) [µM] | TGI (XF 498 CNS) [µM] | TGI (P388 leukemia) [µM] | TGI (P388/ADR leukemia) [µM] | TGI (SN12K1 renal) [µM] | GI50 (DMS 114 small cell lung) [µM] | GI50 (XF 498 CNS) [µM] |
| --- | --- | --- | --- | --- | --- | --- | --- | --- | --- | --- | --- | --- | --- | --- | --- | --- | --- | --- | --- | --- |
| CC(=O)Nc1ccc(Sc2nnc(NC(C)=O)s2)cc1 | > 100 | > 100 | > 100 | > 100 | > 100 | > 100 | > 100 | > 100 | > 100 | – | – | – | – | – | – | – | – | – | – | – |
| O=[N+]([O-])c1cccc(N=Nc2c(O)ccc3ccccc23)c1 | > 100 | – | – | – | > 100 | > 100 | > 100 | > 100 | > 100 | > 100 | > 100 | – | – | – | – | – | – | – | – | – |
| COc1cc(C=O)cc(O)c1O | – | – | > 100 | > 100 | – | – | – | – | – | – | > 100 | > 100 | > 100 | > 100 | – | – | – | – | – | – |
| O=C1c2ccccc2C(=O)N1CC(CN1C(=O)c2ccccc2C1=O)(C(=O)OCc1ccccc1)C(=O)OCc1ccccc1 | > 100 | – | > 100 | – | > 100 | > 100 | > 100 | > 100 | > 100 | > 100 | – | – | – | – | – | – | – | – | – | – |
| O=c1oc2ccc([N+](=O)[O-])cc2cc1Br | > 100 | > 100 | > 100 | > 100 | > 100 | > 100 | > 100 | > 100 | > 100 | > 100 | > 100 | – | – | – | – | – | – | – | – | – |
| Cn1c(=O)c(Cl)c(N=[N+]=[N-])c2ccccc21 | > 100 | > 100 | > 100 | > 100 | – | > 100 | > 100 | > 100 | > 100 | > 100 | – | – | – | – | – | – | – | – | – | – |
| O=[N+]([O-])C(=C/c1cccs1)/C(=C\c1cccs1)[N+](=O)[O-] | 0.864 | 7.72 | 0.987 | 2.68 | 2.23 | 7.74 | 2.65 | 5.4 | 50.7 | – | – | – | – | – | – | – | – | – | – | – |
| C=CCCCCCCCCC(=O)O | – | 452 | – | – | – | – | – | 558 | – | 1.06 | – | – | 389 | 289 | 30.9 | 379 | 264 | 209 | – | – |
| CCOC(=O)C(OP(=O)(OCC)OCC)C(F)(F)F (stereo unspecified) | > 100 | > 100 | > 100 | > 100 | > 100 | > 100 | > 100 | – | > 100 | > 100 | – | – | – | – | – | – | – | – | – | – |
| COc1cccc2c1C(=O)c1c(O)c3c(c(O)c1C2=O)C[C@@](O)(C(=O)CO)CC3OC1CC(NCCCC(OC(C)=O)OC(C)=O)C(O)C(C)O1 (stereo partly specified) | – | – | 0.000288 | – | – | – | – | – | – | 0.00609 | – | 0.00872 | 0.000341 | – | – | – | – | – | < 0.0001 | 0.0001 |
| CCN1CCC(O)(c2ccc(O)cc2)C(C(=O)c2ccc(O)cc2)C1 (stereo unspecified) | 31.1 | 10.9 | 43.4 | 34 | 33.3 | 32.9 | – | 71 | > 100 | – | – | – | – | – | – | – | – | – | – | – |
| CN(C(=O)c1ccc(OCCCC(=O)O)c(Cl)c1Cl)C1CCCC1 | – | > 100 | – | – | – | – | – | > 100 | – | > 100 | – | – | > 100 | > 100 | 85.2 | > 100 | > 100 | > 100 | – | – |
| COC1C(O)C(C)OC(OC2CCC3(C)C(CCC4C3C(O)CC3(C)C(C5=CC(=O)OC5)CCC43O)C2)C1O (stereo unspecified) | 24.4 | – | > 100 | 0.684 | 1.24 | 2.59 | 0.905 | – | > 100 | 0.703 | – | – | – | – | – | – | – | – | – | – |
| CNC(=O)NS(=O)(=O)c1ccc(C)cc1 | > 100 | > 100 | – | > 100 | – | > 100 | > 100 | > 100 | > 100 | – | > 100 | – | – | – | – | – | – | – | – | – |
| CC1=C2C3OC(=O)C(C)C3CCC2(C)C=CC1=Nc1ccccc1 (stereo unspecified) | – | > 100 | – | – | – | – | – | > 100 | – | > 100 | – | – | > 100 | > 100 | – | > 100 | > 100 | > 100 | – | – |
| Cc1ccc(-c2cc(-c3ccco3)c(C#N)c(=O)n2C2OC(CO)C(O)C(O)C2O)cc1 (stereo unspecified) | – | – | > 100 | > 100 | – | – | – | – | – | 50.9 | – | > 100 | > 100 | > 100 | – | – | – | – | – | – |
